Measurements from patent US11541057B2, “Thienopyrimidinone NMDA receptor modulators and uses thereof” (Cadent Therapeutics, Inc., priority 2015, dated 2023).

Target: T1, NMDA receptor GRIN1/GRIN2B (NR2B) expressed in HEK293 cells (Homo sapiens, UniProt Q13224)
T1 construct: host or cells: HEK293
Test: Reversal of Ro 25-6981-mediated suppression of the Ca2+ response (fluo-8 fluorescence, FDSS) in HEK293 cells expressing GRIN1 and GRIN2B
Type: cell-based
Details: % reversal=100*(R−Rneg)/(Rpos−Rneg) of Ro 25-6981 suppression of co-agonist (glutamate/glycine) Ca2+ response, 10 min pre-incubation, compound concentration not given
Method: HEK293 cells with constructs conferring stable expression of the GRIN1 gene and tetracycline-inducible expression of the GRIN2B gene (Chantest, Cleveland, Ohio) are grown to ˜75% confluence in tissue culture flasks at 37° C., 5% CO2. NR2B expression is induced by overnight incubation with 0.3-0.4 μg/ml tetracycline in the presence of 2.5 mM ARL-15896 at 37° C., followed by moving to 30° C. for 3-5 hours. Cells are next harvested using TripleExpress™ (Life Technologies, Carlsbad, Calif.) according to the manufacturer's instructions, first removing culture medium, rinsing with Dulbecco's phosphate buffered saline (Ca^2+ and Mg^2+-free), and then adding the TripleExpress™ reagent. Harvested cells are spun down, washed twice in Ca^2+- and Mg^2+-free Hank's Balanced Salt Solution with 20 mM HEPES and 10 mM glucose, pH 7.4 (HHnoCa solution), and counted with viability assessed using Trypan Blue. Cells are loaded with fluo-8 Ca^2+-sensitive dye in HHnoCa solution according to the manufacturer's directions (AAT Bioquest, Sunnyvale, Calif.), incubating at 37° C. for 20 minutes followed by 25 minutes at 22-25° C. After a wash in HHnoCa to remove extracellular dye, cells are resuspended in HHnoCa and plated at […] cells per well in a volume of 25 μl/well in 384 well black-wall, clear bottom plates (Hamamatsu, Middlesex, N.J.). Plates are then centrifuged to create a monolayer in the wells and stored in the dark until used.
Prior to analysis, compound plates are prepared with each compound at 6× the final desired concentration. From stock solutions at 10 mM in 100% DMSO, compounds are spotted in the desired amounts using an ECHO liquid handler (Labcyte, Sunnyvale, Calif.) into wells of a 384-well plate and then diluted with 50 μl of HHnoCa containing 750 nM Ro 25-6981 and 120 μM 5,7-dichlorokynurenic acid (both purchased from Tocris Bioscience (Bristol, England) and maintained as 10 mM stock solutions in 100% DMSO). To insure complete compound dissolution, these plates are then placed in an orbital shaker for at least one hour. Also prepared prior to the assay is a co-agonist plate containing HHnoCa with 240 μM glutamate, 2.4 mM glycine, and 7.2 mM CaCl2, which is 2.4× the desired final concentration of each reagent. Both the compound plate and co-agonist plate are 384-well polypropylene plates from Thermo Fisher Scientific, Waltham, Mass.
The assay is performed by first adding 10 μl solution from each well of the compound plate described above to the cell plate using a CyBiWell liquid handler (Analytik Jena AG, Jena, Germany), followed by 10 minutes pre-incubation in the dark. Cell plates are then loaded onto a Hamamatsu FDSS 6000 plate reader. After a 30-second baseline, 25 μl is added to each well from the co-agonist plate, and the fluorescence signal is recorded for another 2 minutes. FDSS software applies shading and autofluorescence correction, and resultant raw fluorescence measurements are exported in the form of a fluorescence ratio for each well to its own reading at time zero in the experiment. In each plate, negative control wells consist of wells where Ro 25-6981 and 5,7 dichlorokynurenic acid are present and co-agonist is applied in the absence of any added assay compound. Under these conditions, the Ca^2+ response to co-agonist is suppressed. Positive control wells also present in each plate contain 5,7 dichlorokynurenic acid but no Ro 25-6981, so that co-agonist addition results in a large Ca^2+ response. Compounds tested are evaluated on the basis of their ability to reverse the suppression of the Ca^2+ response mediated by Ro 25-6981, which is quantified as % reversal=100*(R−Rneg)/(Rpos−Rneg) where R is the fluorescence ratio for the test compound at the end of the experiment and Rneg and Rpos are the end ratios for the negative and positive controls, respectively. […]

T1 sequence (Q13224 27-1484, other chains not shown): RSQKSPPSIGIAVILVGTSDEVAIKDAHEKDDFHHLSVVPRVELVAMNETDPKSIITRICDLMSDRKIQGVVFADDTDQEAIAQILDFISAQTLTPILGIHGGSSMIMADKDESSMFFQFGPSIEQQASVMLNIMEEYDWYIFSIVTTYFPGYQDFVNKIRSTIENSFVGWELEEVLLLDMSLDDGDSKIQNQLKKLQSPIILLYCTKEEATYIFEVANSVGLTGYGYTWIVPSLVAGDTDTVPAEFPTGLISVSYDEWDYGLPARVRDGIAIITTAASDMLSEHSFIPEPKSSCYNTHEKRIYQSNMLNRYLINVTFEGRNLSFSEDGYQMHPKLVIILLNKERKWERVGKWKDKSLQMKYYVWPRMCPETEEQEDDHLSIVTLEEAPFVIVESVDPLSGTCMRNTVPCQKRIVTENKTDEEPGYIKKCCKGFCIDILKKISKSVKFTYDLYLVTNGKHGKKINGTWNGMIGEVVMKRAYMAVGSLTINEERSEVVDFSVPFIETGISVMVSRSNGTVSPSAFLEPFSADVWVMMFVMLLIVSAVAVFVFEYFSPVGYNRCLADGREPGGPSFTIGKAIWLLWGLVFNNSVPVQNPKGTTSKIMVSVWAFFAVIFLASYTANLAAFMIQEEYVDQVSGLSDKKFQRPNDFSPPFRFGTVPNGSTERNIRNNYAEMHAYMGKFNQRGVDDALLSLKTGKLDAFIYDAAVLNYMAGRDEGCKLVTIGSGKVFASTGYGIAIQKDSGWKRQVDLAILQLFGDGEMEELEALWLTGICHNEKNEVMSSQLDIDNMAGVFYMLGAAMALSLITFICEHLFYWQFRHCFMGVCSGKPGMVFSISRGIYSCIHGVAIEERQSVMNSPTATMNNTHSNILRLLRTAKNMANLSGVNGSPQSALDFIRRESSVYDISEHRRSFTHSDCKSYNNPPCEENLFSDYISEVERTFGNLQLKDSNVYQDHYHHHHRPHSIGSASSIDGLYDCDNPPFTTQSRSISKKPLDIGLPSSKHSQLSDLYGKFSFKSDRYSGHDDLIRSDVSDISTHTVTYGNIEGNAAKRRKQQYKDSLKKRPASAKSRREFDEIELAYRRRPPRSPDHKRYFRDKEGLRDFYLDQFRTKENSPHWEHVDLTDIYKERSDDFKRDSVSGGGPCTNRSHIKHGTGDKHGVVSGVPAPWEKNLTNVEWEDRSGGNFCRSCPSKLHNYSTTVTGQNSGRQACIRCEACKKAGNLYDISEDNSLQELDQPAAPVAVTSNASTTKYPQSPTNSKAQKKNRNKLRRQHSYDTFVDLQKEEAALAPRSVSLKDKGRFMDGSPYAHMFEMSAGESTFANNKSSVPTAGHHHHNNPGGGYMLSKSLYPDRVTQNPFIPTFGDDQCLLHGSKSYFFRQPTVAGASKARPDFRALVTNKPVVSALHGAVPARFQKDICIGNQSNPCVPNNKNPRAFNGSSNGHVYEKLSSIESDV

Response Recovered (%)	Structure (SMILES)
3%	O=C(Cn1cnc2scc(-c3ccc(Cl)cc3)c2c1=O)N1CCCCC1 [Example 8, 5-(4-chlorophenyl)-3-[2-oxo-2-(piperidin-1-yl)ethyl]-3H,4H-thieno[2,3-d]pyrimidin-4-one]
0%	O=C(Cn1cnc2sc(-c3ccc(Cl)cc3)cc2c1=O)N1CCCCC1 [Example 75, 6-(4-chlorophenyl)-3-[2-oxo-2-(piperidin-1-yl)ethyl]-3H,4H-thieno[2,3-d]pyrimidin-4-one]
8%	O=C(Cn1cnc2scc(-c3ccc(Cl)cc3)c2c1=O)N1CCCC1C(F)(F)F (centres unmarked) [Example 11, 5-(4-chlorophenyl)-3-{2-oxo-2-[2-(trifluoromethyl)pyrrolidin-1-yl]ethyl}-3H,4H-thieno[2,3-d]pyrimidin-4-one]
6%	O=C(CCn1cnc2scc(-c3ccc(Cl)c(C(F)(F)F)c3)c2c1=O)N1CCCC1 [Example 101, 5-(4-chloro-3-(trifluoromethyl)phenyl)-3-(3-oxo-3-(pyrrolidin-1-yl)propyl)thieno[2,3-d]pyrimidin-4(3H)-one]
40%	Cc1sc2ncn(CC(=O)N3CCCC3)c(=O)c2c1-c1ccc(F)c(C(F)(F)F)c1 [Example 81, 5-[4-fluoro-3-(trifluoromethyl)phenyl]-6-methyl-3-[2-oxo-2-(pyrrolidin-1-yl)ethyl]-3H,4H-thieno[2,3-d]pyrimidin-4-one]
18%	O=C(Cn1cnc2sc(-c3ccc(Cl)cc3)cc2c1=O)N1CCOCC1 [Example 77, 6-(4-chlorophenyl)-3-[2-(morpholin-4-yl)-2-oxoethyl]-3H,4H-thieno[2,3-d]pyrimidin-4-one]
3%	CN1CCN(C(=O)Cn2cnc3scc(-c4ccc(Cl)cc4)c3c2=O)CC1 [Example 3, 5-(4-chlorophenyl)-3-[2-(4-methylpiperazin-1-yl)-2-oxoethyl]-3H,4H-thieno└2,3-d┘pyrimidin-4-one]
3%	O=C(Cn1cnc2scc(-c3cncc(F)c3)c2c1=O)N1CCCC1 [Example 39, 5-(5-fluoropyridin-3-yl)-3-[2-oxo-2-(pyrrolidin-1-yl)ethyl]-3H,4H-thieno└2,3-d┘pyrimidin-4-one]
32%	O=C(On1cnc2scc(-c3ccc(Cl)c(F)c3)c2c1=O)N1CCCC1 [Example 87, 5-(4-chloro-3-fluorophenyl)-4-oxo-3H,4H-thieno[2,3-d]pyrimidin-3-yl pyrrolidine-1-carboxylate]
60%	Cc1sc2ncn(CC(=O)N3CCCC3)c(=O)c2c1-c1ccc(Cl)c(Cl)c1 [Example 84, 5-(3,4-dichlorophenyl)-6-methyl-3-[2-oxo-2-(pyrrolidin-1-yl)ethyl]-3H,4H-thieno[2,3-d]pyrimidin-4-one]
2%	O=C(Cn1cnc2scc(-c3ccc(Cl)cc3)c2c1=O)NC1CC1 [Example 5, 2-[5-(4-chlorophenyl)-4-oxo-3H,4H-thieno[2,3-d]pyrimidin-3-yl]-N-cyclopropylacetamide]
20%	O=C(Cn1cnc2scc(-c3cc(C(F)(F)F)ccc3F)c2c1=O)N1CCCC1 [Example 54, 5-[2-fluoro-5-(trifluoromethyl)phenyl]-3-[2-oxo-2-(pyrrolidin-1-yl)ethyl]-3H,4H-thieno[2,3-d]pyrimidin-4-one]
1%	O=C(Cn1cnc2scc(-c3cncnc3)c2c1=O)N1CCCC1 [Example 40, 3-[2-oxo-2-(pyrrolidin-1-yl)ethyl]-5-(pyrimidin-5-yl)-3H,4H-thieno[2,3-d]pyrimidin-4-one]
76%	O=C(Cn1cnc2scc(-c3ccc(Cl)c(C(F)(F)F)c3)c2c1=O)N1CCCC1 [Example 20, 5-(4-chloro-3-(trifluoromethyl)phenyl)-3-(2-oxo-2-(pyrrolidin-1-yl)ethyl)thieno[2,3-d]pyrimidin-4(3H)-one]
